Laboratory results: patent US20020068367A1, “Linker and method for solid phase combinatorial synthesis” (priority 2000, published 2002)
“And” between values parts separate entries of the source, which are not always exact repeats. Identical values can stand only once.

Target: T1, fluorescein-streptavidin (Streptomyces avidinii, UniProt P22629)
T1 construct: purchased Calbiochem-Novabiochem Corp., La Jolla, Calif; 189734
Assay: Fluorescence emission standard curve, streptavidin-fluorescein (evaluation of linker 3)
Conditions: for Fluorescence emission (standard curve): replicates
Text: FIG. 8 is a plot of data from Table 8, derived from evaluation of linker 3;

T1 sequence (P22629 25-183): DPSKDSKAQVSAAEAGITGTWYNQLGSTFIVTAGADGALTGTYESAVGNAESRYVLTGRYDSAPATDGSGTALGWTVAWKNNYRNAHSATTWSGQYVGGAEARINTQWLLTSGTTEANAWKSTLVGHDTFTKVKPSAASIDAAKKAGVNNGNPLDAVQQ

In the case of `O=C(CCCCCNC(=O)CCCCCNC(=O)CCCCC1SCC2NC(=O)NC21)NCCCCCNC(=O)CCCCCNC(=O)CCCCC1SCC2NC(=O)NC21` (stereo not shown) [Linker 3], the “Fluorescence emission (standard curve), mean of Columns 1-3” value ([ST/FL] 7.4 pmol) was 150.37, the “Fluorescence emission (standard curve), sum of Columns 1-2” value (“Fluorescence emission … of Columns 1-2” below) ([ST/FL] 7.4 pmol) was 283.8 and the “Fluorescence emission (standard curve), sum of Columns 1-3” value ([ST/FL] 7.4 pmol) was 451.1. The “Fluorescence emission (standard curve)” value ([ST/FL] 7.4 pmol) was 112.81 and 170.99 and 167.3, the “Fluorescence emission (standard curve), mean of Columns 1-3” value ([ST/FL] 11.0 pmol) was 245.76 and the “Fluorescence emission … of Columns 1-2” value ([ST/FL] 11.0 pmol) was 498.27. For the same molecule, the “Fluorescence emission (standard curve), sum of Columns 1-3” value ([ST/FL] 11.0 pmol) was 737.28, the “Fluorescence emission (standard curve)” value ([ST/FL] 11.0 pmol) was 270.54 and 227.73 and 239.01 and the “Fluorescence emission (standard curve), mean of Columns 1-3” value ([ST/FL] 15.0 pmol) was 281.62. The “Fluorescence emission … of Columns 1-2” value ([ST/FL] 15.0 pmol) was 566.42, the “Fluorescence emission (standard curve), sum of Columns 1-3” value ([ST/FL] 15.0 pmol) was 844.85 and the “Fluorescence emission (standard curve)” value ([ST/FL] 15.0 pmol) was 307.82 and 258.6 and 278.43. The “Fluorescence emission (standard curve), mean of Columns 1-3” value ([ST/FL] 18.0 pmol) was 311.00, the “Fluorescence emission … of Columns 1-2” value ([ST/FL] 18.0 pmol) was 633.01 and the “Fluorescence emission (standard curve), sum of Columns 1-3” value ([ST/FL] 18.0 pmol) was 933.0. For the same molecule, the “Fluorescence emission (standard curve)” value ([ST/FL] 18.0 pmol) was 361.66 and 271.35 and 299.99, the “Fluorescence emission (standard curve), mean of Columns 1-3” value ([ST/FL] 22.0 pmol) was 350.48 and the “Fluorescence emission … of Columns 1-2” value ([ST/FL] 22.0 pmol) was 723.72. For the same molecule, the “Fluorescence emission (standard curve), sum of Columns 1-3” value ([ST/FL] 22.0 pmol) was 1051.4, the “Fluorescence emission (standard curve)” value ([ST/FL] 22.0 pmol) was 363.91 and 359.81 and 327.71 and the “Fluorescence emission (standard curve), mean of Columns 1-3” value ([ST/FL] 26.0 pmol) was 461.85. For the same molecule, the “Fluorescence emission … of Columns 1-2” value ([ST/FL] 26.0 pmol) was 944.08, the “Fluorescence emission (standard curve), sum of Columns 1-3” value ([ST/FL] 26.0 pmol) was 1385.6 and the “Fluorescence emission (standard curve)” value ([ST/FL] 26.0 pmol) was 496.71 and 447.37 and 441.48. The “Fluorescence emission (standard curve), mean of Columns 1-3” value ([ST/FL] 29.0 pmol) was 472.31, the “Fluorescence emission … of Columns 1-2” value ([ST/FL] 29.0 pmol) was 1001.7 and the “Fluorescence emission (standard curve), sum of Columns 1-3” value ([ST/FL] 29.0 pmol) was 1416.9. The “Fluorescence emission (standard curve)” value ([ST/FL] 29.0 pmol) was 495.93 and 505.81 and 415.18, the “Fluorescence emission (standard curve), mean of Columns 1-3” value ([ST/FL] 36.0 pmol) was 567.49 and the “Fluorescence emission … of Columns 1-2” value ([ST/FL] 36.0 pmol) was 1141.1. For the same molecule, the “Fluorescence emission (standard curve), sum of Columns 1-3” value ([ST/FL] 36.0 pmol) was 1702.5, the “Fluorescence emission (standard curve)” value ([ST/FL] 36.0 pmol) was 569.16 and 571.94 and 561.36 and the “Fluorescence emission (standard curve), mean of Columns 1-3” value ([ST/FL] 45.0 pmol) was 697.34. For the same molecule, the “Fluorescence emission … of Columns 1-2” value ([ST/FL] 45.0 pmol) was 1374.6, the “Fluorescence emission (standard curve), sum of Columns 1-3” value ([ST/FL] 45.0 pmol) was 2092.0 and the “Fluorescence emission (standard curve)” value ([ST/FL] 45.0 pmol) was 688.65 and 685.98 and 717.4. The “Fluorescence emission (standard curve), mean of Columns 1-3” value ([ST/FL] 60.0 pmol) was 847.26, the “Fluorescence emission … of Columns 1-2” value ([ST/FL] 60.0 pmol) was 1651.9 and the “Fluorescence emission (standard curve), sum of Columns 1-3” value ([ST/FL] 60.0 pmol) was 2541.8. For the same molecule, the “Fluorescence emission (standard curve)” value ([ST/FL] 60.0 pmol) was 837.57 and 816.34 and 889.88.
